Measurements published in US11890317B2, “Cell-protecting composition containing cyclo histidine-proline as active ingredient” (NovMetaPharma Co., Ltd., priority 2016, dated 2024).

Assays:
[1] = test system: kidney cells (LLC-PK1 cells); assay: Inhibition of gentamicin (GM)-induced apoptosis of kidney cells, cell viability by cell counting kit-8; format: cell-based
Protocol: Specifically, the cyclo histidine-proline (CHP) was produced by requesting only a target spec (99% purity) from a peptide manufacturer (Bachem; Bubendorf, Switzerland). The gentamycin was purchased from Sigma Chemical Co. (St. Louis, Mo., USA). The kidney cells (LLC-PK1 cells) were purchased from the American Type Culture Collection (ATCC; Manassas, VA, USA). The present inventors simultaneously treated and cultured the kidney cell (LLC-PK1 cell) with CHP 0.1, 1, 5 or 10 mg/mL respectively together with GM 5 mg/mL for 6 hours (FIG. 1A).
(§1) Further, the present inventors pre-treated and pre-cultured the kidney cell (LLC-PK1 cell) with CHP 0.1, 1, 5 or 10 mg/mL for 2 hours and subsequently post-treated and post-cultured the kidney cell (LLC-PK1 cell) with GM 5 mg/mL for 4 hours (FIG. 1B). The cell viability was analyzed using cell counting kit-8 (Dojindo Laboratories; Kumamoto, Japan). Subsequently, the cell viability was measured with a microplate reader (Molecular Devices, LLC; Sunnyvale, CA, USA).

[2] = test system: liver cells (Chang liver cells); assay: Inhibition of acetaminophen (APAP)-induced apoptosis of liver cells, cell viability by cell counting kit-8; format: cell-based
Protocol: Specifically, the acetaminophen was purchased from Sigma Chemical Co. (St. Louis, Mo., USA). The liver cells (Chang liver cells) were purchased from the American Type Culture Collection (ATCC; Manassas, VA, USA). The present inventors simultaneously treated and cultured the liver cell (Chang liver cell) with CHP 0.1, 1, 5 or 10 mg/mL respectively together with APAP 15 mM for 24 hours (FIG. 2A).
as §1, with “liver” for “kidney”, “(Chang liver” for “(LLC-PK1”, “24” for “2”, “APAP 15 mM” for “GM 5 mg/mL”, “24” for “4”, “2B).” for “1B).”

SD mice = assay: Liver function protection against cisplatin liver toxicity in mice, serum ALT and AST; format: in vivo; conditions: CHP 1, 5 or 10 mg/L in drinking water for 1 week, then cisplatin 7.5 mg/kg i.p., serum after 24 hours
Protocol: To determine the protective effect of CHP on liver toxicity in mice, the present inventors purchased SD mice from Koatech, and the mice were raised under constant conditions (temperature: 23±3° C., relative humidity: 55±10%, daily cycle: 12 hours). Five mice were grouped into one group. We fed water and food to mice in the cage. We adapted the mice for experiments for one week prior to the experiment. After the adaption period, the mice were grouped into five groups.
1 group ingested water and was set as a negative control. […] These 3, 4 and 5 groups were set as liver damage prevention effect groups. The CHP ingestion using drinking water was performed once every two days.
To measure ALT and AST, we collected blood from the abdominal aorta from a mouse. We separated only serum from the blood using a centrifugal separator and analyzed the serum using an automatic analyzer (Hitachi 7180; Tokyo, Japan).
We conducted individual comparisons using the […] post-test thereon.

ICR mice [3] = assay: Kidney function protection against cisplatin kidney toxicity in mice, serum creatinine; format: in vivo; conditions: CHP 1 mg/kg orally daily for 1 week, then cisplatin 10 mg/kg i.p., serum after 72 hours, FIG. 5
Excerpt: (§2) Five mice were grouped into one group. We fed water and food to mice in the cage. We adapted the mice for experiments for one week prior to the experiment.

ICR mice [4] = assay: Kidney function protection against cisplatin kidney toxicity in mice, serum BUN; format: in vivo; conditions: CHP 1 mg/kg orally daily for 1 week, then cisplatin i.p., serum after 24 hours, FIG. 6
Excerpt: as §2

gentamicin [GM, reference compound]
apoptosis of kidney cells caused by the drug ([1]; GM 5 mg/mL): induced apoptosis of kidney cells

CC(=O)Nc1ccc(O)cc1 [APAP, acetaminophen, reference compound]
apoptosis of liver cells caused by the drug ([2]; APAP 15 mM): induced apoptosis of liver cells

O=C1N[C@@H](Cc2c[nH]cn2)C(=O)N2CCC[C@@H]12 [CHP, cyclo histidine-proline]
inhibition of gentamicin (GM)-induced apoptosis, kidney cells pre-treated with CHP ([1]; CHP 0.1, 1, 5 or 10 mg/mL pre-treatment 2 hours, then GM 5 mg/mL 4 hours, FIG. 1B): greatly inhibited | inhibition of apoptosis of kidney cells induced by gentamicin (GM) ([1]; CHP 0.1, 1, 5 or 10 mg/mL, GM 5 mg/mL, FIG. 1A and 1B): inhibited the apoptosis of kidney cells induced by the gentamicin (GM) in a concentration-dependent manner | inhibition of acetaminophen (APAP)-induced apoptosis, liver cells co-treated with APAP and CHP ([2]; CHP 0.1, 1, 5 or 10 mg/mL together with APAP 15 mM for 24 hours, FIG. 2A): significantly inhibited | inhibition of apoptosis of liver cells induced by acetaminophen (APAP) ([2]; CHP 0.1, 1, 5 or 10 mg/mL, APAP 15 mM, FIG. 2A and 2B): inhibited the apoptosis of liver cells induced by the acetaminophen (APAP) in a concentration-dependent manner | cisplatin-induced ALT (SD mice; FIG. 3): significantly reduced | cisplatin-induced AST (SD mice; FIG. 4): significantly reduced | cisplatin-induced creatinine (ICR mice [3]): significantly reduced | cisplatin-induced BUN (ICR mice [4]): significantly reduced
